Measured values published in US7928135B2, “Benzene, pyridine, and pyridazine derivatives” (Serenex, Inc., priority 2005, dated 2011).

These compounds were tested on PC-3 cell proliferation (assay: Cell proliferation assay (WST-1), PC-3). Conditions: Homo sapiens; PC-3 cells, WST-1 readout; read-out: inhibitory activity against PC-3 cell proliferation (IC50 range).
Assay type: cell-based
Description: A panel of cancer cell lines was obtained from the DCTP Tumor Repository, National Cancer Institute (Frederick, Md.) or ATCC (Rockville, Md.). Cell cultures were maintained in Hyclone RPMI 1640 medium (Logan, Utah) supplemented with 10% fetal bovine serum and 20 mM HEPES buffer, final pH 7.2, at 37° C. with a 5% CO2 atmosphere. Cultures were maintained at sub-confluent densities. Human umbilical vein endothelial cells (HUVEC) were purchased from Clonetics, a division of Cambrex (Walkersville, Md.). Cultures were established from cryopreserved stocks using Clonetics EGM-2 medium supplemented with 20 mM HEPES, final pH 7.2, at 37° C. with a 5% CO2 atmosphere.
For proliferation assays, cells were seeded with the appropriate medium into 96 well plates at 1,000-2,500 cells per well, depending on the cell line, and were incubated overnight. The following day, test compound, DMSO solution (negative control), or Actinomycin D (positive control) was added to the appropriate wells as 10× concentrated stocks prepared in phosphate buffered saline. The cell plates were then incubated for an additional 2-5 days, depending on the cell line, to allow proliferation to occur. To measure cell density, 50 μL of WST-1 solution (Roche Applied Science, Ind.) diluted 1:5 in phosphate buffered saline was added to each well, and the cells incubated for an additional 1-5 hrs., again depending on the cell line. Optical density was determined for each well at […] using a Tecan GeniosPro plate reader (RTP, NC). The percentage of cell growth was determined by comparing the cell growth in the presence of test compounds to the cells treated with DMSO vehicle (control, 100% growth) and cells treated with Actinomycin D (10 μM, 0% growth). […]

Row | Compound | IC50 [nM]
1 | C#Cc1cccc(Nc2cc(-n3c(C)cc4c3CC(C)(C)CC4=O)ccc2C(N)=O)c1 [Compound 72, 2-[(3-ethynylphenyl)amino]-4-(2,6,6-trimethyl-4-oxo-4,5,6,7-tetrahydro-1H-indol-1-yl)benzamide] | 500 to 5000
2 | COc1cc(Nc2cc(-n3c(C)c(Cl)c4c3CC(C)(C)CC4=O)ccc2C(N)=O)cc(OC)c1OC [Compound 81, 4-(3-chloro-2,6,6-trimethyl-4-oxo-4,5,6,7-tetrahydro-1H-indol-1-yl)-2-[(3,4,5-trimethoxyphenyl)amino]benzamide] | < 500
3 | Cc1nn(-c2ccc(C(N)=O)c(NCCS(C)(=O)=O)c2)c2c1C(=O)CC(C)(C)C2 [Compound 113, 2-{[2-(methylsulfonyl)ethyl]amino}-4-(3,6,6-trimethyl-4-oxo-4,5,6,7-tetrahydro-1H-indazol-1-yl)benzamide] | < 500
4 | CC1(C)CC(=O)c2c(C(F)F)nn(-c3ccc(C(N)=O)c(NC4CC=CC4)c3)c2C1 [Compound 116, 2-(cyclopent-3-en-1-ylamino)-4-[3-(difluoromethyl)-6,6-dimethyl-4-oxo-4,5,6,7-tetrahydro-1H-indazol-1-yl]benzamide] | < 500
5 | COCC(=O)Nc1cc(-n2cc(C)c3c2CC(C)(C)CC3=O)ccc1C(N)=O [Compound 101, 2-[(methoxyacetyl)amino]-4-(3,6,6-trimethyl-4-oxo-4,5,6,7-tetrahydro-1H-indol-1-yl)benzamide] | 500 to 5000
6 | COc1ccc(Nc2cc(-n3cc(C)c4c3CC(C)(C)CC4=O)ccc2C(N)=O)cc1OCCN(C)C [Compound 104, 2-({3-[2-(dimethylamino)ethoxy]-4-methoxyphenyl}amino)-4-(3,6,6-trimethyl-4-oxo-4,5,6,7-tetrahydro-1H-indol-1-yl)benzamide] | < 500
7 | Cc1cn(-c2ccc(C(N)=O)c(Nc3ccnc(OCCN(C)C)c3)c2)c2c1C(=O)CC(C)(C)C2 [Compound 108, 2-({2-[2-(dimethylamino)ethoxy]pyridin-4-yl}amino)-4-(3,6,6-trimethyl-4-oxo-4,5,6,7-tetrahydro-1H-indol-1-yl)benzamide] | < 500
8 | Cc1nn(-c2ccc(C(N)=O)c(Nc3cccc([S+](C)[O-])c3)c2)c2c1C(=O)CC(C)(C)C2 (stereo not drawn) [Compound 123, 2-{[3-(methylsulfinyl)phenyl]amino}-4-(3,6,6-trimethyl-4-oxo-4,5,6,7-tetrahydro-1H-indazol-1-yl)benzamide] | 500 to 5000
9 | Cc1cc(Nc2cc(-n3c(C)cc4c3CC(C)(C)CC4=O)ccc2C(N)=O)no1 [Compound 84, 2-[(5-methylisoxazol-3-yl)amino]-4-(2,6,6-trimethyl-4-oxo-4,5,6,7-tetrahydro-1H-indol-1-yl)benzamide] | 500 to 5000
10 | COc1ccc(Nc2cc(-n3nc(C)c4c3CC(C)(C)CC4=O)ccc2C(N)=O)cc1 [Compound 114, 2-[(4-methoxyphenyl)amino]-4-(3,6,6-trimethyl-4-oxo-4,5,6,7-tetrahydro-1H-indazol-1-yl)benzamide] | < 500
11 | Cc1nn(-c2ccc(C(N)=O)c(N[C@H](C)c3ccccc3)c2)c2c1C(=O)CC(C)(C)C2 [Compound 106, 2-{[(1R)-1-phenylethyl]amino}-4-(3,6,6-trimethyl-4-oxo-4,5,6,7-tetrahydro-1H-indazol-1-yl)benzamide] | 500 to 5000
12 | Cc1cc2c(n1-c1ccc(C(N)=O)c(Nc3ccc(O)cc3)c1)CC(C)(C)CC2=O [Compound 82, 2-[(4-hydroxyphenyl)amino]-4-(2,6,6-trimethyl-4-oxo-4,5,6,7-tetrahydro-1H-indol-1-yl)benzamide] | 500 to 5000
13 | Cc1nn(-c2ccc(C(N)=O)c(NC3CCN(C(=O)CCN4CCOCC4)CC3)c2)c2c1C(=O)CC(C)(C)C2 [Compound 127, 2-{[1-(3-morpholin-4-ylpropanoyl)piperidin-4-yl]amino}-4-(3,6,6-trimethyl-4-oxo-4,5,6,7-tetrahydro-1H-indazol-1-yl)benzamide] | < 500
14 | CC1(C)CC(=O)c2c(-c3ccccc3)cn(-c3ccc(C(N)=O)cc3)c2C1 [Compound 110, 4-(6,6-dimethyl-4-oxo-3-phenyl-4,5,6,7-tetrahydro-1H-indol-1-yl)benzamide] | 5000 to 50000
15 | COc1ccc(Nc2cc(-n3nc(C)c4c3CC(C)(C)CC4=O)ccc2C(N)=O)cc1OCCN(C)C [Compound 27, 2-[3-(2-Dimethylamino-ethoxy)-4-methoxy-phenylamino]-4-(3,6,6-trimethyl-4-oxo-4,5,6,7-tetrahydro-indazol-1-yl)-benzamide] | < 500
16 | Cc1nn(-c2ccc(C(N)=O)c(NCC3CC3)c2)c2c1C(=O)CC(C)(C)C2 [Compound 100, 2-[(cyclopropylmethyl)amino]-4-(3,6,6-trimethyl-4-oxo-4,5,6,7-tetrahydro-1H-indazol-1-yl)benzamide] | < 500
17 | COc1ccc(Nc2cc(-n3c(C)cc4c3CC(C)(C)CC4=O)ccc2C(N)=O)cc1OCCCN(C)C [Compound 93, 2-({3-[3-(dimethylamino)propoxy]-4-methoxyphenyl}amino)-4-(2,6,6-trimethyl-4-oxo-4,5,6,7-tetrahydro-1H-indol-1-yl)benzamide] | 500 to 5000
18 | COCCNc1cc(-n2cc(C)c3c2CC(C)(C)CC3=O)ccc1C(N)=O [Compound 5, 2-(2-Methoxy-ethylamino)-4-(3,6,6-trimethyl-4-oxo-4,5,6,7-tetrahydro-indol-1-yl)-benzamide] | 500 to 5000
19 | CC1(C)CC(=O)c2c(C(F)(F)F)nn(-c3ccc(C(N)=O)c(NC4CCSCC4)c3)c2C1 [Compound 31, 4-(6,6-Dimethyl-4-oxo-3-trifluoromethyl-4,5,6,7-tetrahydro-indazol-1-yl)-2-(tetrahydro-thiopyran-4-ylamino)-benzamide] | < 500
20 | CC1(C)CC(=O)c2c(C(F)(F)F)nn(-c3ccc(C(N)=O)c(NC4CCN(S(C)(=O)=O)CC4)c3)c2C1 [Compound 124, 4-[6,6-dimethyl-4-oxo-3-(trifluoromethyl)-4,5,6,7-tetrahydro-1H-indazol-1-yl]-2-{[1-(methylsulfonyl)piperidin-4-yl]amino}benzamide] | < 500
21 | Cc1cn(-c2ccc(C(N)=O)c(NCCNC(=O)CO)c2)c2c1C(=O)CC(C)(C)C2 [Compound 112, 2-{[2-(glycoloylamino)ethyl]amino}-4-(3,6,6-trimethyl-4-oxo-4,5,6,7-tetrahydro-1H-indol-1-yl)benzamide] | 5000 to 50000
22 | CN(C)S(=O)(=O)CCNc1cc(-n2nc(C(F)(F)F)c3c2CC(C)(C)CC3=O)ccc1C(N)=O [Compound 136, 2-({2-[(dimethylamino)sulfonyl]ethyl}amino)-4-[6,6-dimethyl-4-oxo-3-(trifluoromethyl)-4,5,6,7-tetrahydro-1H-indazol-1-yl]benzamide] | 500 to 5000
23 | Cc1nn(-c2ccc(C(N)=O)c(NC3CCN(C(=O)CN)CC3)c2)c2c1C(=O)CC(C)(C)C2 [Compound 129, 2-[(1-glycylpiperidin-4-yl)amino]-4-(3,6,6-trimethyl-4-oxo-4,5,6,7-tetrahydro-1H-indazol-1-yl)benzamide] | 500 to 5000
24 | Cc1cn(-c2ccc(C(N)=O)c(Nc3ccncc3)c2)c2c1C(=O)CC(C)(C)C2 [Compound 97, 2-(pyridin-4-ylamino)-4-(3,6,6-trimethyl-4-oxo-4,5,6,7-tetrahydro-1H-indol-1-yl)benzamide] | < 500
25 | Cc1cc2c(n1-c1ccc(C(N)=O)c(Nc3ccccc3)c1)CCCC2=O [Compound 74, 2-anilino-4-(2-methyl-4-oxo-4,5,6,7-tetrahydro-1H-indol-1-yl)benzamide] | 5000 to 50000
26 | COc1cc(Nc2cc(-n3nc(C)c4c3CC(C)(C)CC4=O)ccc2C(N)=O)cc(OC)c1OC [Compound 19, 4-(6,6-Dimethyl-4-oxo-3-methyl-4,5,6,7-tetrahydro-indazol-1-yl)-2-(3,4,5-trimethoxyanilino)-benzamide] | < 500

The compounds below were run on HSP-90 (heat shock protein 90) (assay: Determination of affinity for HSP-90 (elution from purine affinity column, SDS-PAGE densitometry)). Conditions: elution of HSP-90 from purine affinity column with 20, 100 and 500 μM test compound.
Assay type: binding
Set-up: key: +++: very high; ++: high; +: moderate
Description: Affinity of test compounds for HSP-90 was determined as follows: Protein mixtures obtained from a variety of organ tissues (for example: spleen, liver and lung) were reversibly bound to a purine affinity column to capture purine-binding proteins, especially HSP-90. The purine affinity column was washed several times, and then eluted with 20 μM, 100 μM, and 500 μM of test compound. Compounds of Formula I elute HP-90 in a dose-dependent manner vs. a control elution using dimethylsulfoxide. The elution profile of Formula I compounds was determined by 1-dimensional SDS polyacrylamide gel electrophoresis. Gels were stained with a fluorescent stain such as sypro ruby (a highly sensitive fluorescent protein stain that can readily detect less than 1 fmol of total protein, i.e., less than 0.04 ng for a 40 kDa protein) or silver nitrate. The gels were imaged using a standard flat bed gel imager and the amount of protein estimated by densitometry. The percent of HSP-90 protein eluted from the column at each concentration was determined and IC50 values were calculated from these estimates. The identity of a band containing HSP-90 was determined by protein sequencing using mass spectroscopy.
Compounds of the invention are inhibitors of HSP-90 (heat shock protein 90). Several exemplary compounds useful in the methods of the invention are listed below.

Row | Compound | relative binding affinity to HSP-90
27 | COCCNc1cc(-n2c(C)c(C)c3c2CCCC3=O)ccc1C(N)=O [Compound 92, 4-(2,3-dimethyl-4-oxo-4,5,6,7-tetrahydro-1H-indol-1-yl)-2-[(2-methoxyethyl)amino]benzamide] | ++
